Experimental data taken from patent US8106055B2, “Substituted amide compounds” (Gruenenthal GmbH, priority 2007, dated 2012).

How the values were obtained:
[1] = target: T1, serotonin (5-HT) reuptake (Rattus norvegicus, UniProt P31652); experiment: Inhibition of serotonin (5HT) reuptake in synaptosomes from rat brain; type: biochemical; settings: test concentration of 10 μM; for inhibition at 10 µM: read-out: 5-HT (inhibition of reuptake of serotonin, % inhibition)
T1 construct: synaptosomes are freshly isolated from areas of the rat brain; from tissue; host or cells: rat brain synaptosomes (P2 fraction)
Outline: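 Freshly isolated rat brain synaptosomes (P2 fraction) used for 5-HT reuptake. Test compound at 10 μM, activity given as % inhibition.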

[2] = target: T2, human bradykinin 1 receptor (B1R) (Homo sapiens, UniProt P46663); experiment: Functional investigation on the human bradykinin 1 receptor (B1R), Ca2+ FLIPR assay in CHO K1 hB1R cells; type: cell-based; settings: test substance 10 μM, Ca2+ FLIPR, CHO K1 hB1R cells; for B1R Ant. h [10 μM] % Inhibition: B1R antagonism human; for inhibition at 10 µM: CHO-K1, B1R antagonism human, read-out: B1R Ant. h [10 μM] % Inhibition
T2 construct: expressed in transfected cells; host or cells: CHO K1 cells
T2 sequence (P46663 1-353): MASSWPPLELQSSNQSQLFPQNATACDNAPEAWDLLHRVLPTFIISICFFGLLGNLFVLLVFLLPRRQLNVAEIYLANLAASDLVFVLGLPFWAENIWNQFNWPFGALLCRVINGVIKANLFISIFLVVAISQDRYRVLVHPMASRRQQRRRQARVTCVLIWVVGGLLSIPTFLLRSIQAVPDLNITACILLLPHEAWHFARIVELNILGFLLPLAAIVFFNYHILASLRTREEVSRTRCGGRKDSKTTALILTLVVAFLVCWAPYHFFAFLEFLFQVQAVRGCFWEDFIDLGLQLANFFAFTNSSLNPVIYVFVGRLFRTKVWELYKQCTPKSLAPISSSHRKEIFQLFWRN
Outline: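 Cells were dye-loaded with Fluo-4 plus probenecid, then test substances added and Ca2+ influx compared with agonist control for % activation. After 10-20 min, EC80 agonist (Lys-Des-Arg9-bradykinin human; Des-Arg9-bradykinin rat) was applied; suppression gave % inhibition and IC50 values.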

T1 sequence (P31652 whole entry): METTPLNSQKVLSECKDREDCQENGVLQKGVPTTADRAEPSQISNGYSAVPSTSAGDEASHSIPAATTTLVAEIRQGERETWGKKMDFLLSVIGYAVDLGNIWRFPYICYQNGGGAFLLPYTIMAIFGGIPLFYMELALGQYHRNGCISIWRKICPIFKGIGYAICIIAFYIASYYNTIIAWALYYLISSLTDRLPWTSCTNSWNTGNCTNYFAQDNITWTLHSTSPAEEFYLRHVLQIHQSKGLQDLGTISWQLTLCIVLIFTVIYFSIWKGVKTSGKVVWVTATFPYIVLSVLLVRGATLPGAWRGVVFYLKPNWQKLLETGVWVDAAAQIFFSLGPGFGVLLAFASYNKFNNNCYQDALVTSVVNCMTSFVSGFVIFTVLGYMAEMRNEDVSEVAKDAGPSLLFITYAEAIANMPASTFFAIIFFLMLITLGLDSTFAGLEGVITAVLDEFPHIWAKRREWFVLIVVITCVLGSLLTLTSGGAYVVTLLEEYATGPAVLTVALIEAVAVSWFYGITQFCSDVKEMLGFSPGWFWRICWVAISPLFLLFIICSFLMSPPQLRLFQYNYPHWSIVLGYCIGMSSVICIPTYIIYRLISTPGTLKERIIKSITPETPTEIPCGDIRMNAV

Structure (SMILES)	5-HT (inhibition of reuptake of serotonin, % inhibition) ([1]; 10 µM)	B1R Ant. h [10 μM] % Inhibition [2]	inhibition at 10 µM [1]	inhibition at 10 µM [2]	5-HT (inhibition of reuptake of serotonin, % inhibition) [1]
COc1ccc(S(=O)(=O)N2CCCCC2COCC(=O)NCC2CCC(C(CCc3ccccc3)N(C)C)CC2)c(OC)c1 (stereo not shown) [Example 420]	74%	−7%			
CN(C)C(c1cccs1)C1CCC(CNC(=O)COC2CCN(S(=O)(=O)c3ccc(F)cc3)C2)CC1 (stereo not shown) [Example 97, N-((4-((dimethylamino)(thiophen-2-yl)methyl)cyclohexyl)methyl)-2-(1-(4-fluorophenylsulfonyl)pyrrolidin-3-yloxy)acetamide]			91%	1%	
CN(C)C(CCc1ccccc1)C1CCC(CNC(=O)COC2CCN(S(=O)(=O)c3ccc(Cl)cc3)C2)CC1 (stereo not shown) [Example 557]		20%			88%
COc1ccc(S(=O)(=O)N2CCCCC2COCC(=O)NCC2CCC(C(CCc3ccccc3)N(C)C)CC2)cc1OC (stereo not shown) [Example 570]	87%	−18%			
COc1ccc(S(=O)(=O)N2CCCCC2COCC(=O)NCC2CCC(C(c3cccs3)N(C)C)CC2)cc1OC (stereo not shown) [Example 133, 2-((1-(3,4-Dimethoxyphenylsulfonyl)piperidin-2-yl)methoxy)-N-((4-((dimethylamino)(thiophen-2-yl)methyl)cyclohexyl)methyl)acetamide]			88%	-23%	
CN(C)C(CCc1ccccc1)C1CCC(CNC(=O)COC2CCN(S(=O)(=O)c3cccc(C(F)(F)F)c3)C2)CC1 (stereo not shown) [Example 552]		49%			90%
COc1cc(C)c(S(=O)(=O)N2CCC(CCOCC(=O)NCCC3CCC(C(c4ccc(Cl)cc4)N(C)C)CC3)CC2)c(C)c1C (stereo not shown) [Example 561]		−1%			79%
CN(C)C(c1ccc(F)cc1)C1CCC(CCNC(=O)COCCN(C)S(=O)(=O)c2ccc(Cl)cc2Cl)CC1 (stereo not shown) [Example 586]		95%			73%
CN(C)C(c1cccs1)C1CCC(CCNC(=O)COCCN2CCN(S(=O)(=O)c3ccccc3)CC2)CC1 (stereo not shown) [Example 99, N-(2-(4-((dimethylamino)(thiophen-2-yl)methyl)cyclohexyl)ethyl)-2-(2-(4-(phenylsulfonyl)piperazin-1-yl)ethoxy)acetamide]			95%	-8%	
CN(C)C(c1ccc(F)cc1)C1CCC(CCNC(=O)COC2CCN(S(=O)(=O)c3ccccc3)CC2)CC1 (stereo not shown) [Example 553]		−21%			94%
COc1cc(C)c(S(=O)(=O)N(CCOCC(=O)NCCC2CCC(C(c3ccc(Cl)cc3)N(C)C)CC2)Cc2ccccc2)c(C)c1 (stereo not shown) [Example 569]		14%			52%
CN(C)C(c1cccs1)C1CCC(CCNC(=O)COC2CCCN(S(=O)(=O)c3ccccc3)C2)CC1 (stereo not shown) [Example 100, N-(2-(4-((dimethylamino)(thiophen-2-yl)methyl)cyclohexyl)ethyl)-2-(1-(phenylsulfonyl)piperidin-3-yloxy)acetamide]			97%	-3%	
CN(C)C(c1cccc(F)c1)C1CCC(CCNC(=O)COCCC2CCN(S(=O)(=O)c3ccccc3)CC2)CC1 (stereo not shown) [Example 543]		−31%			76%
COc1cc(C)c(S(=O)(=O)N2CCC(OCC(=O)NC3CCC(C(c4cccs4)N(C)C)CC3)C2)c(C)c1 (stereo not shown) [Example 98, N-(4-((dimethylamino)(thiophen-2-yl)methyl)cyclohexyl)-2-(1-(4-methoxy-2,6-dimethylphenylsulfonyl)pyrrolidin-3-yloxy)acetamide]			92%	64%	
COc1ccc(S(=O)(=O)N2CCCCC2COCC(=O)NC2CCC(C(c3ccc(F)cc3)N(C)C)CC2)cc1OC (stereo not shown) [Example 555]		−14%			86%
CN(C)C(c1cccc(F)c1)C1CCC(CNC(=O)COCC2CCCN2S(=O)(=O)c2ccc(Cl)c(Cl)c2)CC1 (stereo not shown) [Example 119, 2-((1-(3,4-dichlorophenylsulfonyl)pyrrolidin-2-yl)methoxy)-N-((4-((dimethylamino)(3-fluorophenyl)methyl)cyclohexyl)methyl)acetamide]			96%	67%	

Structure (SMILES)	5-HT (inhibition of reuptake of serotonin, % inhibition) ([1]; 10 µM)	B1R Ant. h [10 μM] % Inhibition [2]	inhibition at 10 µM [1]	inhibition at 10 µM [2]	5-HT (inhibition of reuptake of serotonin, % inhibition) [1]
CN(C)C(CCc1ccccc1)C1CCC(CNC(=O)COCCN(C)S(=O)(=O)c2cccc(C(F)(F)F)c2)CC1 (stereo not shown) [Example 556]		82%			86%
COc1ccc(S(=O)(=O)N2CCCCC2COCC(=O)NCC2CCC(C(c3ccc(F)cc3)N(C)C)CC2)cc1OC (single isomer, unassigned) [Example 537]	92%	−15%			
CN(C)C(CCc1ccccc1)C1CCC(CNC(=O)COC2CCCN(S(=O)(=O)c3ccccc3)C2)CC1 (stereo not shown) [Example 558]		14%			92%
COc1ccc(S(=O)(=O)N(C)CCOCC(=O)NC2CCC(C(c3ccc(F)cc3)N(C)C)CC2)cc1OC (stereo not shown) [Example 548]		6%			99%
CN(C)C(c1ccccc1)C1CCC(CNC(=O)COC2CCCN(S(=O)(=O)c3ccccc3)C2)CC1 (stereo not shown) [Example 114, N-((4-((dimethylamino)(phenyl)methyl)cyclohexyl)methyl)-2-(1-(phenylsulfonyl)piperidin-3-yloxy)acetamide]			96%	-17%	
COc1cc(C)c(S(=O)(=O)N(CCOCC(=O)NCC2CCC(C(c3ccc(F)cc3)N(C)C)CC2)Cc2ccccc2)c(C)c1C (stereo not shown) [Example 563]		54%			90%
CN(C)C(c1ccc(Cl)cc1)C1CCC(CNC(=O)COCCC2CCN(S(=O)(=O)c3ccccc3)CC2)CC1 (stereo not shown) [Example 584]		−20%			64%
CN(C)C(c1cccc(F)c1)C1CCC(CCNC(=O)COCCN(C)S(=O)(=O)c2ccc(Cl)cc2Cl)CC1 (stereo not shown) [Example 126, 2-(2-(2,4-dichloro-N-methylphenylsulfonamido)ethoxy)-N-(2-(4-((dimethylamino)(3-fluorophenyl)methyl)cyclohexyl)ethyl)acetamide]			86%	103%	
COc1ccc(S(=O)(=O)N2CCCC2COCC(=O)NCC2CCC(C(CCc3ccccc3)N(C)C)CC2)cc1 (stereo not shown) [Example 572]		50%			93%
COc1cc(C)c(S(=O)(=O)N2CCC(CCOCC(=O)NCC3CCC(C(c4cccs4)N(C)C)CC3)CC2)c(C)c1C (stereo not shown) [Example 131, N-((4-((dimethylamino)(thiophen-2-yl)methyl)cyclohexyl)methyl)-2-(2-(1-(4-methoxy-2,3,6-trimethylphenylsulfonyl)piperidin-4-yl)ethoxy)acetamide]			91%	15%	
CN(C)C(c1cccs1)C1CCC(CCNC(=O)COC2CCN(S(=O)(=O)c3cccc(C(F)(F)F)c3)C2)CC1 (stereo not shown) [Example 96, N-(2-(4-((dimethylamino)(thiophen-2-yl)methyl)cyclohexyl)ethyl)-2-(1-(3-(trifluoromethyl)phenylsulfonyl)pyrrolidin-3-yloxy)acetamide]			81%	4%	
COc1ccc(S(=O)(=O)N2CCCCC2COCC(=O)NCCC2CCC(C(c3cccc(F)c3)N(C)C)CC2)cc1OC (stereo not shown) [Example 581]	70%	2%			
CCN(CCOCC(=O)NCC1CCC(C(c2cccc(F)c2)N(C)C)CC1)S(=O)(=O)c1c(C)cc(OC)c(C)c1C (stereo not shown) [Example 117, N-((4-((dimethylamino)(3-fluorophenyl)methyl)cyclohexyl)methyl)-2-(2-(N-ethyl-4-methoxy-2,3,6-trimethylphenylsulfonamido)ethoxy)acetamide]			94%	76%	
COc1ccc(S(=O)(=O)N2CCCCC2COCC(=O)NCC2CCC(C(CCc3ccccc3)N(C)C)CC2)c(OC)c1 (stereo not shown) [Example 486]	73%	28%			
CN(C)C(CCc1ccccc1)C1CCC(CNC(=O)COC2CCN(S(=O)(=O)c3ccccc3)C2)CC1 (stereo not shown) [Example 573]		−4%			100%
COc1cc(C)c(S(=O)(=O)N2CCC(OCC(=O)NCC3CCC(C(c4cccs4)N(C)C)CC3)CC2)c(C)c1C (stereo not shown) [Example 104, N-((4-((dimethylamino)(thiophen-2-yl)methyl)cyclohexyl)methyl)-2-(1-(4-methoxy-2,3,6-trimethylphenylsulfonyl)piperidin-4-yloxy)acetamide]			93%	24%	
